Laboratory results published in PMC5550493, “The Conserved Lysine-265 Allosterically Modulates Nucleotide- and Actin-binding Site Coupling in Myosin-2” (Scientific Reports, 2017).

Assays:
[1] = molecular target: T1, actomyosin (Dd myosin-2 M765-2R with F-actin) (Dictyostelium discoideum, UniProt P08799); test: stopped-flow light scattering, ADP inhibition of ATP-induced actomyosin dissociation; type: binding; conditions: read-out: Dd myosin-2 (M765-2R construct) / WT
T1 construct: gene mhcA; M765-2R: mhcA 1-765 fused to Dd alpha-actinin repeats (codons 264-505), C-terminal Asp-Ala-Leu-(His)8 tag kept, expressed in D. discoideum AX3-Orf+; in complex with F-actin purified from rabbit skeletal muscle; with Actin, alpha skeletal muscle (Oryctolagus cuniculus)
T1 sequence (P08799 whole entry, looked up, the tested form may be a part): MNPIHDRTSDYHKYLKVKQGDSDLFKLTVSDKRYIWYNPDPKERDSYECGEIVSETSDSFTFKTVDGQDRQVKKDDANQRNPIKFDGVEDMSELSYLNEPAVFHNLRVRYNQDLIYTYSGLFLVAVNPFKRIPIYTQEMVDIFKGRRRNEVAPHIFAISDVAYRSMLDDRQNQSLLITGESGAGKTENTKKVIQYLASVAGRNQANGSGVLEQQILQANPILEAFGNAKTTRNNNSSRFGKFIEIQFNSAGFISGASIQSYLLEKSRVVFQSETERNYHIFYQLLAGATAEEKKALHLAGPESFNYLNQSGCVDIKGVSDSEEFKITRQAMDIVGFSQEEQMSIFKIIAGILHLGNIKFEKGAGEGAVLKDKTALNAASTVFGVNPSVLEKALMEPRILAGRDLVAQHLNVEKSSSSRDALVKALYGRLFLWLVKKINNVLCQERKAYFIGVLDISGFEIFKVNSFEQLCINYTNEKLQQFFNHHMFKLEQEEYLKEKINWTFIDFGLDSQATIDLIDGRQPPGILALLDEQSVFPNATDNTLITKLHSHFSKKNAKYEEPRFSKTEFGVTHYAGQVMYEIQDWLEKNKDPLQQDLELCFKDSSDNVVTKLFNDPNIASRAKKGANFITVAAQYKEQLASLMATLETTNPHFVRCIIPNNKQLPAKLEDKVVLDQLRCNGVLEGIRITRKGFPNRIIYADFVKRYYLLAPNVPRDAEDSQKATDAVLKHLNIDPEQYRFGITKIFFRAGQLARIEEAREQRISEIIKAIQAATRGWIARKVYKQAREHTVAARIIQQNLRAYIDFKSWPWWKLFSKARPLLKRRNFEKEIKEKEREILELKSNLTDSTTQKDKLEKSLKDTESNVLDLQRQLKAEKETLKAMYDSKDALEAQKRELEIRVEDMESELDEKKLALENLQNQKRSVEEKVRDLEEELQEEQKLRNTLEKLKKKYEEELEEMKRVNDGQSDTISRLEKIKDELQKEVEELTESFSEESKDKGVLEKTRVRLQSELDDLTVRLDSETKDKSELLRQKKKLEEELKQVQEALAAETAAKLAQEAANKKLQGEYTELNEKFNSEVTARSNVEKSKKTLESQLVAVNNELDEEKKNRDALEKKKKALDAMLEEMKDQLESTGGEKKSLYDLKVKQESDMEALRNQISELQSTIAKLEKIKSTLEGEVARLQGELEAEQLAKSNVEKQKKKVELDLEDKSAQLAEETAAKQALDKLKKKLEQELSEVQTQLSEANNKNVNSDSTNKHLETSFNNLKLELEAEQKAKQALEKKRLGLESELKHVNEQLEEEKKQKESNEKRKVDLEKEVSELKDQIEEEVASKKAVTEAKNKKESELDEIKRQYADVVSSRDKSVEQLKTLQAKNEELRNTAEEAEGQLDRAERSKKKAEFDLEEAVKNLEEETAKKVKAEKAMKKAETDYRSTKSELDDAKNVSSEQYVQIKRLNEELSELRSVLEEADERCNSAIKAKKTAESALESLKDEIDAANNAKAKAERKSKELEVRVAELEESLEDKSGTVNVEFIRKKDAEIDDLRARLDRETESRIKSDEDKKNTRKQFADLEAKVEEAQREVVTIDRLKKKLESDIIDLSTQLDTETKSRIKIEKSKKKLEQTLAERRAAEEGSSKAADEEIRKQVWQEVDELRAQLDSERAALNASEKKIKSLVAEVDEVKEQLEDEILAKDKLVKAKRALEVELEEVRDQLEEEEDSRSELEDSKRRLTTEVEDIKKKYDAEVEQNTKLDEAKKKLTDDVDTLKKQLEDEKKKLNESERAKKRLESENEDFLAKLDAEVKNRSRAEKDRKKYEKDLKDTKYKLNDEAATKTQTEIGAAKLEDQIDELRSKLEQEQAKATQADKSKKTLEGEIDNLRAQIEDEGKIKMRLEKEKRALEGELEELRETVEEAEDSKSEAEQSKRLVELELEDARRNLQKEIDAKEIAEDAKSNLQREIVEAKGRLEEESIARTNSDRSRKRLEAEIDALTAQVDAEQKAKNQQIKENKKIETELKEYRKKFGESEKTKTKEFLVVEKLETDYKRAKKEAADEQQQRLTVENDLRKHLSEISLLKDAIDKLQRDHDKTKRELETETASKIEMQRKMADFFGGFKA
From the text: stopped-flow light scattering, ADP inhibition of ATP-induced actomyosin dissociation on actomyosin (Dd myosin-2 M765-2R with F-actin)

[2] = molecular target: T1, actomyosin (Dd myosin-2 M765-2R with F-actin); test: NADH-coupled actin-activated ATPase assay; type: biochemical; conditions: 20 µM F-actin, 1 mM ATP, 5% DMSO, 25 mM HEPES pH 7.3, 25 mM KCl, 5 mM MgCl2, 25 °C; allosteric

SMILES | Kd [1] [µM] | n-fold inhibition at 100 μM PBP [2] [fold]
Nc1ncnc2c1ncn2[C@@H]1O[C@H](COP(=O)(O)OP(=O)(O)O)[C@@H](O)[C@H]1O [ADP] | 73.3 ± 7 | –
Oc1c(Br)cc(Br)cc1-c1[nH]c(Br)c(Br)c1Br [pentabromopseudilin] | – | 7
